One data set has as its target Aurora kinase B (Homo sapiens, UniProt Q96GD4). In words: Inhibition of Aurora B.
Data set [1] can be described thus: Inhibition of Aurora kinase assessed as reduction histone H3 Ser10 phosphorylation by cell based assay.
Data set [2] concerns the target Tyrosine-protein kinase Lck (Homo sapiens, UniProt P06239). Description: Inhibition of LCK.
The target of another data set is T1, Aurora kinase A (Homo sapiens, UniProt O14965).
T1 sequence (O14965 whole entry): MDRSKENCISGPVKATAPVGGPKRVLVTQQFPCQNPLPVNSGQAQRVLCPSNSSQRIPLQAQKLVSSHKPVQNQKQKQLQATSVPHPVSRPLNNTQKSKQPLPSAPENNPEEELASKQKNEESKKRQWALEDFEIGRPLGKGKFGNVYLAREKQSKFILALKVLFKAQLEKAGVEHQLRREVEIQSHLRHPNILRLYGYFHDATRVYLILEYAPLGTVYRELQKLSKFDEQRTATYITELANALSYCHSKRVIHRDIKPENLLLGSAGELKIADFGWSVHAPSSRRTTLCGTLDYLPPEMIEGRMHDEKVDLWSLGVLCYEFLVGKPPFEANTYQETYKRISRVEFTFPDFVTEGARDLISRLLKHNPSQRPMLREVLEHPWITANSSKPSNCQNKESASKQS
Description: Inhibition of Aurora A.

Data set [3] in a line: AUC (0-6 hrs) in rat at 10 mg/kg, po. The following applies: plasma. Format: ADME, organism-based. The arrangement: time < 6 hr, dose 10 mg/kg, route oral.
Data set [4] concerns the target T2, Interleukin-1 receptor-associated kinase 4 (Homo sapiens, UniProt Q9NWZ3).
T2 sequence (Q9NWZ3 whole entry): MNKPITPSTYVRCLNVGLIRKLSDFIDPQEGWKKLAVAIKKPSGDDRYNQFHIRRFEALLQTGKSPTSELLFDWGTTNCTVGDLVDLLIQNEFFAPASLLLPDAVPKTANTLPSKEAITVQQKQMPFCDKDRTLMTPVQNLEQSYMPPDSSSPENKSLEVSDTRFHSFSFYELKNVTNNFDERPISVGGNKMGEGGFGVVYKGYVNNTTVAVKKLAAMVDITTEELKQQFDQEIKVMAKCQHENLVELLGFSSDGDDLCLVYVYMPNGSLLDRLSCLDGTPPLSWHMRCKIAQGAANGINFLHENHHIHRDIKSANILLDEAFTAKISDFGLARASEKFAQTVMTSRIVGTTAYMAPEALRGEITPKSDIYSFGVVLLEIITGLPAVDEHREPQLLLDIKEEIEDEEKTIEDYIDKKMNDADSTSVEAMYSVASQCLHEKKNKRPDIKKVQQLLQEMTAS
In words: Inhibition of IRK4.

For data set [5], the target named is T3, Serine/threonine-protein kinase Chk1 (Homo sapiens, UniProt O14757).
T3 sequence (O14757 whole entry): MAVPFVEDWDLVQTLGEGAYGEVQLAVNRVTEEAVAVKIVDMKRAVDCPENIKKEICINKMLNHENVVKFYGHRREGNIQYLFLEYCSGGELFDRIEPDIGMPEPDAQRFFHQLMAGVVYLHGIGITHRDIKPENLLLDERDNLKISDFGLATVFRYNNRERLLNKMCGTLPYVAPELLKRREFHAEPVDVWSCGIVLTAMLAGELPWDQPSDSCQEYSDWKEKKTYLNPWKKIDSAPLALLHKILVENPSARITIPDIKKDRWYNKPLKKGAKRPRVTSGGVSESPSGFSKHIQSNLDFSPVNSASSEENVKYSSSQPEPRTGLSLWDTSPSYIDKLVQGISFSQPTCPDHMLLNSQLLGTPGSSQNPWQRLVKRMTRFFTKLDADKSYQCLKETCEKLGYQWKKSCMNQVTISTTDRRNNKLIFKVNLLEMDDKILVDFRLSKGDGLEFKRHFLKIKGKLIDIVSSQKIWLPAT
In words: Inhibition of CHK1.

Data set [6] concerns the target Vascular endothelial growth factor receptor 2 (Homo sapiens, UniProt P35968). Description: Inhibition of VEGFR2.
Data set [7] has as its target Ribosomal protein S6 kinase alpha-3 (Homo sapiens, UniProt P51812). Description: Inhibition of RSK2.

Chain of Tyrosine-protein kinase Lck (P06239 whole entry): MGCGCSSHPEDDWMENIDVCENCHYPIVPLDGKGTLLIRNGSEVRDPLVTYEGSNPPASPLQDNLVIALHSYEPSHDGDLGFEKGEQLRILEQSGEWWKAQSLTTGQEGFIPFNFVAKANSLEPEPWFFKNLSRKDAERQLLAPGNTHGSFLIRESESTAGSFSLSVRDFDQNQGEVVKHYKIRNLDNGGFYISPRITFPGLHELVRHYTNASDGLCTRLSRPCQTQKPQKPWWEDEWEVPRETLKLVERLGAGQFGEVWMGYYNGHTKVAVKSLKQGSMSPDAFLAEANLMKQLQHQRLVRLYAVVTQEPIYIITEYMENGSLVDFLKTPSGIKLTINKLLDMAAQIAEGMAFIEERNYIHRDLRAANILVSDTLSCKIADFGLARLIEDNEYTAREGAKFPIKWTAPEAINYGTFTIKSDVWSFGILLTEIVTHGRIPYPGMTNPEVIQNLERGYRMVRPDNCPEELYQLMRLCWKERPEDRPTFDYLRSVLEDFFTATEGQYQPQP
Chain of Aurora kinase B (Q96GD4 whole entry): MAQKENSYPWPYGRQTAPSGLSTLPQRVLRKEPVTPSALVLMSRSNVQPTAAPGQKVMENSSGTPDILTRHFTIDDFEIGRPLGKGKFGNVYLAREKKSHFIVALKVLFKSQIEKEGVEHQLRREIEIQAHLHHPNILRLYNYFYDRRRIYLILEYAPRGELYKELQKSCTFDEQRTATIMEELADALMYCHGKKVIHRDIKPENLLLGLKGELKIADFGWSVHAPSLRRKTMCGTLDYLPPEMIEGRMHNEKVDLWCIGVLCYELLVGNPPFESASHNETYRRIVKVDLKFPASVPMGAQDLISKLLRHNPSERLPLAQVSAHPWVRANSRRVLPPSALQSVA
Chain of Vascular endothelial growth factor receptor 2 (P35968 whole entry): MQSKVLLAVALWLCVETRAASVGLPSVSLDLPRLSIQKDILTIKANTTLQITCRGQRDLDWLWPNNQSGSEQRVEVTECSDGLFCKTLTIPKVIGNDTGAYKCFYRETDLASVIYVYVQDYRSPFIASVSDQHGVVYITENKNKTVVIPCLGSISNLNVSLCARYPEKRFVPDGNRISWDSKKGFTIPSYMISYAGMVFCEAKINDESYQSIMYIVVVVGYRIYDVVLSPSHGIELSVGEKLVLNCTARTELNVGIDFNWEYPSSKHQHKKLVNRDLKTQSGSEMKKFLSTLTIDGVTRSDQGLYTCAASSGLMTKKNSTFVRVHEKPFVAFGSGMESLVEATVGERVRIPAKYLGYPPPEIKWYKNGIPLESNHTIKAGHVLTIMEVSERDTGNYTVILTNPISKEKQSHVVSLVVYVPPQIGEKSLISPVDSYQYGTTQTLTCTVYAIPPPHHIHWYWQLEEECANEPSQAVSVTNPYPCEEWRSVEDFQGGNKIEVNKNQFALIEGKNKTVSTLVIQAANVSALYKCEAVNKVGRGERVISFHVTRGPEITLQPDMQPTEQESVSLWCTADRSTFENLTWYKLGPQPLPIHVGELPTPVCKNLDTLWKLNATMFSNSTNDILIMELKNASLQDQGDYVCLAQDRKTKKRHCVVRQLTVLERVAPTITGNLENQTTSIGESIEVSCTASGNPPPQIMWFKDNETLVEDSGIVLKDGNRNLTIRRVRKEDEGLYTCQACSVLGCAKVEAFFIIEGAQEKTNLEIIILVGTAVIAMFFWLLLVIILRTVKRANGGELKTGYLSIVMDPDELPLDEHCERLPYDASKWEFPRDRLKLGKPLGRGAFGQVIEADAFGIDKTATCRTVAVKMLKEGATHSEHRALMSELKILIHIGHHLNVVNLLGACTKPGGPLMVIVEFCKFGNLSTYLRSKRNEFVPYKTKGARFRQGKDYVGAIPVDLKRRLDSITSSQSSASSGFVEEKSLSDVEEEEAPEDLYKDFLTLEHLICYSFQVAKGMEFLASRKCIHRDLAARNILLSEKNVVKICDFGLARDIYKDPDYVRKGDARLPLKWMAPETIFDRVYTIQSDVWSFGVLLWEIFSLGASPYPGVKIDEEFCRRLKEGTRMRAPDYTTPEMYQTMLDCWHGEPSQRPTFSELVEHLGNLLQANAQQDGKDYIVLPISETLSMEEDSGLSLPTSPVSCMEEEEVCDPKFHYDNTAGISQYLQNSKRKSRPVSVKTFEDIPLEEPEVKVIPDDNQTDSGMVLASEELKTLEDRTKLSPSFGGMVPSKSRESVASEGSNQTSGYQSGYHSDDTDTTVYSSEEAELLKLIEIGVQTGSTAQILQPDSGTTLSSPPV
Chain of Ribosomal protein S6 kinase alpha-3 (P51812 whole entry): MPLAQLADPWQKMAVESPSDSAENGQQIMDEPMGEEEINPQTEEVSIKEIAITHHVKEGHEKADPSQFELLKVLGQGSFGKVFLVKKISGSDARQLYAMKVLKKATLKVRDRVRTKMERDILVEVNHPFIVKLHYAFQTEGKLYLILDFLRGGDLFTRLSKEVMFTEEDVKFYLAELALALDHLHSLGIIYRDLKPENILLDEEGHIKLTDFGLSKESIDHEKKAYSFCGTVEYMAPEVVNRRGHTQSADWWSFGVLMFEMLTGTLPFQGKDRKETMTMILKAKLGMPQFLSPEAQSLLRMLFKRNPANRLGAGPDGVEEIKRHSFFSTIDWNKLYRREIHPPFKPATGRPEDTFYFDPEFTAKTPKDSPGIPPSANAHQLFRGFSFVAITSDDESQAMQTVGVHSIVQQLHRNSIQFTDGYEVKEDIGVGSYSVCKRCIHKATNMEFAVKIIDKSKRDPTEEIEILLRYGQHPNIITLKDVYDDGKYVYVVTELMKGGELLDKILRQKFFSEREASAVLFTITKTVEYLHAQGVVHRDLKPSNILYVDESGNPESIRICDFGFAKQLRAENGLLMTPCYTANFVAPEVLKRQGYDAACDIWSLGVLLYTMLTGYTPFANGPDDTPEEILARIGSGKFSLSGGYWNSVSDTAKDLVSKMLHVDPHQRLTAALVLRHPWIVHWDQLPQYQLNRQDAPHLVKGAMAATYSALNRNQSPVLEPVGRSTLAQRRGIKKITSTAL

What is called IC50 is the point on the concentration scale where inhibition reaches its midpoint. Low readings indicate greater potency, high ones weaker potency. A word on the EC50: it is the concentration that produces a half-maximal response. In the case of `Cc1cc(Nc2nc(C)cn3c(-c4cn[nH]c4)cnc23)sn1`, the half-inhibitory concentration (IC50) at Aurora kinase B is ≤ 13 nM; in [2], 568 nM. Further, the EC50 in data set [1] worked out at 250 nM.

As usually defined, the AUC(0-t) is exposure summed from dosing to a finite time, without extrapolation to infinity. Read a high AUC(0-t) as more exposure. For the compound `Cc1cn2c(-c3cn[nH]c3)cnc2c(Nc2cc(C(C)N3CCOC(C)(C)C3)ns2)n1` (racemic), the concentration for half-maximal inhibition (IC50) on Aurora kinase A is ≤ 4 nM; on Aurora kinase B, ≤ 13 nM. This compound gave an AUC(0-t) at 6 h in data set [3] of 1.3 µM·h. The 50% effective concentration (EC50) in [1] came out at 71 nM.

Take `Cc1cn2c(-c3cn[nH]c3)cnc2c(Nc2cc(CN3CCN(C)CC3=O)ns2)n1`: the 50% inhibitory concentration (IC50) was ≤ 4 nM against Aurora kinase A and ≤ 13 nM against Aurora kinase B. Moreover, the EC50 in [1] is > 1000 nM.

For `CC(=O)N1CCN(Cc2cc(Nc3nc(C)cn4c(-c5cn[nH]c5)cnc34)sn2)CC1`, the IC50 against Aurora kinase A was ≤ 4 nM; on Aurora kinase B, ≤ 13 nM. For the same compound, in data set [1], the EC50 was > 1000 nM.

In the case of `COCC(c1cc(Nc2nc(C)cn3c(-c4cn[nH]c4)cnc23)sn1)N1CCOCC1` (racemic), the IC50 on Aurora kinase A is ≤ 4 nM; against Aurora kinase B it was ≤ 13 nM. For the same compound, the exposure AUC(0-t) at 6 h in data set [3] is 2.3 µM·h. Also, the EC50 in data set [1] amounted to 83 nM.

For the compound `Cc1cn2c(-c3cn[nH]c3)cnc2c(Nc2cc(CN3CCOC(C)(C)C3)ns2)n1`, the values for the IC50 against Aurora kinase A and against Aurora kinase B were ≤ 4 nM and ≤ 13 nM, respectively. Besides, the EC50 in data set [1] amounted to 250 nM.

Take `CCNC(=O)N1CCN(Cc2cc(Nc3nc(C)cn4c(-c5cn[nH]c5)cnc34)sn2)CC1`: the IC50 against Aurora kinase A is ≤ 4 nM; at Aurora kinase B, ≤ 13 nM. Besides, in data set [1], the EC50 is > 1000 nM.

On to `Cc1cn2c(-c3cn[nH]c3)cnc2c(Nc2cc(CN3CCN(C)C(=O)C3)ns2)n1`, for which the IC50 was ≤ 4 nM on Aurora kinase A and ≤ 13 nM against Aurora kinase B. Also, the concentration giving a half-maximal response (EC50) in data set [1] was > 1000 nM.

Turning to `Cc1cn2c(-c3cn[nH]c3)cnc2c(Nc2cc(CN3CCOCC34CCC4)ns2)n1`, the IC50 against Aurora kinase A is ≤ 4 nM; against Aurora kinase B, ≤ 13 nM. Also, the AUC(0-t) at 6 h in [3] is 0.4 µM·h. The EC50 in data set [1] was 197 nM.

Consider `CCOCC(c1cc(Nc2nc(C)cn3c(-c4cn[nH]c4)cnc23)sn1)N1CCOCC1` (racemic), for which the IC50 against Aurora kinase A was ≤ 4 nM; at Aurora kinase B, ≤ 13 nM. For the same compound, the EC50 in data set [1] worked out at 281 nM.

As to `Cc1cn2c(-c3cn[nH]c3)cnc2c(Nc2cc(CN3CCOCC3(C)C)ns2)n1`, the figures for the half-inhibitory concentration (IC50) (at Aurora kinase A; against Aurora kinase B; in data set [2]) were ≤ 4 nM, ≤ 13 nM and 384 nM, respectively. The compound also displayed an AUC(0-t) at 6 h in data set [3] of 3.3 µM·h. Moreover, the EC50 in data set [1] amounted to 117 nM.

In the case of `Cc1cn2c(-c3cn[nH]c3)cnc2c(Nc2cc(CN3CCN(CCO)CC3)ns2)n1`, the IC50 against Aurora kinase A was ≤ 4 nM; against Aurora kinase B, ≤ 13 nM. In data set [1], the EC50 is > 1000 nM.

As to `CSc1cn2c(-c3cn[nH]c3)cnc2c(Nc2cc(C)ns2)n1`, the IC50 at Aurora kinase B was ≤ 13 nM. For the same compound, in data set [1], the EC50 came out at 600 nM.

Take `Cc1cn2c(-c3cn[nH]c3)cnc2c(Nc2cc(CN3CCN(C)CC3)ns2)n1`: the values for the IC50 against Aurora kinase A and against Aurora kinase B were ≤ 4 nM and ≤ 13 nM, respectively. Moreover, the EC50 in data set [1] stood at 412 nM.

With `CCN(Cc1cc(Nc2nc(C)cn3c(-c4cn[nH]c4)cnc23)sn1)C(C)(C)CO`, the IC50 was 8 nM in data set [4]; 13 nM in [5]; ≤ 4 nM on Aurora kinase A; ≤ 1 nM in data set [6]; ≤ 13 nM at Aurora kinase B; 180 nM in data set [7]. In addition, in data set [2], the IC50 was ≤ 1 nM. Further, the EC50 in [1] was found to be 24 nM.

In the case of `CCOC(=O)N1CCN(Cc2cc(Nc3nc(C)cn4c(-c5cn[nH]c5)cnc34)sn2)CC1`, the IC50 against Aurora kinase A is ≤ 4 nM; against Aurora kinase B it was ≤ 13 nM. This compound gave an AUC(0-t) at 6 h in data set [3] of 0.38 µM·h. Also, the EC50 in [1] came to 561 nM.

As for `Cc1cn2c(-c3cn[nH]c3)cnc2c(Nc2cc(C(C)N3CCOCC3)ns2)n1` (racemic), the IC50 against Aurora kinase A is ≤ 4 nM; at Aurora kinase B, ≤ 13 nM. The compound also registered an AUC(0-t) at 6 h in [3] of 1.1 µM·h. Besides, the EC50 in data set [1] was 74 nM.

Take `Cc1cn2c(-c3cn[nH]c3)cnc2c(Nc2cc(C(C)N3C[C@@H](C)O[C@@H](C)C3)ns2)n1` (mixture of isomers): the IC50 on Aurora kinase A is ≤ 4 nM; at Aurora kinase B, ≤ 13 nM. This compound displayed an AUC(0-t) at 6 h in data set [3] of 8 µM·h. Further, the EC50 in [1] came to 55 nM.

Consider `Cc1cn2c(-c3cn[nH]c3)cnc2c(Nc2cc(CN3C[C@H]4CC[C@@H](C3)O4)ns2)n1`, for which the 50% inhibitory concentration (IC50) on Aurora kinase A was ≤ 4 nM; on Aurora kinase B it was ≤ 13 nM. The AUC(0-t) at 6 h in [3] was found to be 0.4 µM·h. Besides, the EC50 in data set [1] worked out at 267 nM.

With `Cc1cn2c(-c3cn[nH]c3)cnc2c(Nc2cc(CN3CCN(S(C)(=O)=O)CC3)ns2)n1`, the IC50 on Aurora kinase A was ≤ 4 nM; against Aurora kinase B, ≤ 13 nM. For the same compound, in data set [1], the EC50 was > 500 nM.

With `Cc1cn2c(-c3cn[nH]c3)cnc2c(Nc2cc(C3(N4C[C@@H](C)O[C@@H](C)C4)CC3)ns2)n1`, the results for the IC50 against Aurora kinase A and against Aurora kinase B were 45 nM and 50 nM, respectively. Moreover, the AUC(0-t) at 6 h in [3] worked out at 0.3 µM·h. Further, the EC50 in data set [1] came out at 733 nM.

In the case of `Cc1cn2c(-c3cn[nH]c3)cnc2c(Nc2cc(CN3C[C@@H](C)O[C@@H](C)C3)ns2)n1`, the IC50 at Aurora kinase A was ≤ 4 nM; against Aurora kinase B it was ≤ 13 nM. Also, in [3], the area under the curve AUC(0-t) at 6 h worked out at 7.3 µM·h. Further, the EC50 in data set [1] was 82 nM.

Consider `Cc1cn2c(-c3cn[nH]c3)cnc2c(Nc2cc(CN3C[C@H](C)OC[C@@H]3C)ns2)n1`, for which the IC50 against Aurora kinase A was ≤ 4 nM; against Aurora kinase B, ≤ 13 nM. Besides, the AUC(0-t) at 6 h in [3] came out at 3.9 µM·h. Further, the EC50 in data set [1] came out at 256 nM.

For `Cc1cn2c(-c3cn[nH]c3)cnc2c(Nc2cc([C@H](C)N3C[C@@H](C)O[C@@H](C)C3)ns2)n1`, in [3], the AUC(0-t) at 6 h is 1.1 µM·h. The EC50 in [1] worked out at 217 nM.

For `CCC(c1cc(Nc2nc(C)cn3c(-c4cn[nH]c4)cnc23)sn1)N1CCOCC1` (racemic), the IC50 against Aurora kinase A is ≤ 4 nM; on Aurora kinase B, ≤ 13 nM. Moreover, the AUC(0-t) at 6 h in data set [3] came out at 0.5 µM·h. For the same compound, the EC50 in data set [1] amounted to 49 nM.

For the compound `Cc1cn2c(-c3cn[nH]c3)cnc2c(Nc2cc(CN3CCOC[C@@H]3CO)ns2)n1`, the IC50 was ≤ 4 nM against Aurora kinase A and ≤ 13 nM against Aurora kinase B. The concentration for a half-maximal effect (EC50) in data set [1] is > 1000 nM.

`Cc1cn2c(-c3cn[nH]c3)cnc2c(Nc2cc(C(c3ccccn3)N3CCOCC3)ns2)n1` (racemic): the IC50 on Aurora kinase A was ≤ 4 nM; on Aurora kinase B, ≤ 13 nM. This compound also came in with an AUC(0-t) at 6 h in [3] of 0.4 µM·h. For the same compound, in [1], the concentration giving a half-maximal response (EC50) stood at 104 nM.

Regarding `Cc1cn2c(-c3cn[nH]c3)cnc2c(Nc2cc(CN3CCCCC3(C)C)ns2)n1`, the concentration for half-maximal inhibition (IC50) against Aurora kinase A is ≤ 4 nM; against Aurora kinase B, ≤ 13 nM; in data set [2] it was 45 nM. In addition, the AUC(0-t) at 6 h in data set [3] came out at 0.5 µM·h. In addition, the EC50 in [1] was found to be 14 nM.

The record behind these values is ChEMBL document CHEMBL1268847, “Discovery of orally bioavailable imidazo[1,2-a]pyrazine-based Aurora kinase inhibitors” (Bioorg Med Chem Lett, 2010).
